# From publication PMC11389391, “Acetylation of SAMHD1 at lysine 580 is crucial for blocking HIV-1 infection” (mBio, 2024)
# Target: T1, SAMHD1_114-626 (Homo sapiens, UniProt Q9Y3Z3)
# T1 construct: gene SAMHD1; purified recombinant residues 114-626 (HD domain and C-terminus, SAM domain removed); monomer without nucleotides, tetramer with GTP/dTTP
# Test: 1H NMR dTTP hydrolysis rate versus GTP concentration
# Type: biochemical
# Source text: 1H NMR dTTP hydrolysis rate versus GTP concentration on SAMHD1_114-626 | we determine the EC50^GTP (half-maximal effective concentration) and kcat
# T1 sequence (Q9Y3Z3 114-626): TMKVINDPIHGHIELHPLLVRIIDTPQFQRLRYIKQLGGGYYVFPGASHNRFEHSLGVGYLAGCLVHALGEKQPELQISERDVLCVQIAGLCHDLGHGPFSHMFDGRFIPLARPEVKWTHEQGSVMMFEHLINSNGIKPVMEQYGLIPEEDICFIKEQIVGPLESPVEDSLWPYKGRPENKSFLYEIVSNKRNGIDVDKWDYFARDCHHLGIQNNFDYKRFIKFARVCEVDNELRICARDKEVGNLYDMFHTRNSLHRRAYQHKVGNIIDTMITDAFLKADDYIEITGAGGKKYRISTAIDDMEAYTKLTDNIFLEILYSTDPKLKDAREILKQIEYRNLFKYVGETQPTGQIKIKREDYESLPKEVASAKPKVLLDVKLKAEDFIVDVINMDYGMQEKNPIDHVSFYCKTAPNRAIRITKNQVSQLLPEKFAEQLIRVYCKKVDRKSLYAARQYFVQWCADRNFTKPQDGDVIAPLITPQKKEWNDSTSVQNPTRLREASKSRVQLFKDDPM
compound,measurement,value
Nc1nc2c(ncn2[C@@H]2O[C@H](COP(=O)(O)OP(=O)(O)OP(=O)(O)O)[C@@H](O)[C@H]2O)c(=O)[nH]1 [GTP],EC50,1700 nM
